Laboratory results from patent US6716819B2, “Use of xylitol to reduce ionic strength and activate endogenous antimicrobials for prevention and treatment of infections” (University of Iowa Research Foundation, priority 2000, dated 2004).

What was measured:
[1] = cited from earlier work
E. coli = assay: Bacterial killing by nasal lavage fluid, luminescence assay; assay type: cell-based; settings: increasing xylitol concentration (serial dilutions of 300 mM), 4 hours at 30° C.
Experimental: FIG. 4. Effect of modifying ionic strength and xylitol concentration of killing of E. coli by nasal lavage liquid. Nasal lavage liquid was diluted with increasing concentrations of NaCl (bottom X-axis) or xylitol (top X-axis). SEM are smaller than the symbol.
Nasal lavage fluid was collected from normal volunteers. A flexible catheter (18-gauge; Jelco, Tampa, Fla.) was inserted into each nostril and the area flushed four times with 4 ml of sterile water. Cells were removed by centrifugation and the fluid was filtered with a sequential 0.8/0.2 μm Supor Acrodisc PF (GelamnSciences, Ann Arbor, Mich.). To study the effect of xylitol on bacterial killing by endogenous antimicrobial factors, a luminescence assay was used in which E. coli express the genes from Photorhabdus luminescens (Travis, S. M., B. A. D. Conway, J. Zabner, J. J. Smith, N. N. Anderson, P. K. Singh, E. P. Greenberg, and M. J. Welsh. 1999. Activity of Abundant Antimicrobials of the Human Airway. Am. J. Respir. Cell. Mol. Biol. 20:872-879). As previously described, this assay reports bacterial viability. Briefly, bacteria were grown to exponential phase at 30° C., centrifuged, and resuspended in 20 mM potassium phosphate with 2% Lauria-Bertani medium. […] After incubation at 30° C. for 4 hours, luminescence was measured with a luminometer (MLX Luminometer; Dynex Technologies Inc.; Chantilly, Va.). […]

CF epithelia [2] = assay: ASL Cl- concentration and volume (isotope method); assay type: cell-based, human
Experimental: FIGS. 3(A-B). The effect of apical xylitol on non-CF and CF ASL Cl^− concentration and volume. Five μl of isosmotic xylitol or saline solution were applied to the apical surface. Twenty-four hours later, ASL Cl^− concentration (A) and volume (B) were determined. Asterisk indicates a difference between the saline and the xylitol solutions, p<0.05. N=15 to 18 from 3 CF and 3 non-CF specimens.
Airway epithelial cells were isolated from tracheal and bronchial tissue. […] All epithelia were evaluated with scanning electron microscopy for the development of a ciliated apical surface.
The ASL Cl^− concentration was measured as previously described (Zabner, J., J. J. Smith, P. H. Karp, J. H. Widdicombe, and M. J. Welsh. 1998. Loss of CFTR chloride channels alters salt absorption by cystic fibrosis airway epithelia in vitro. Mol. Cell. 2:397-403). […] The ratio of ^36Cl to ^3H2O was determined by liquid scintillation. […] From these measurements, it was determined the ^3H2O activity per μl of water and the cpm of ^36Cl per mole of Cl^− in the basolateral medium. ASL volume was calculated from the ASL ^3H2O collected divided by the ratio of ^3H2O activity per μl of basolateral medium. Chloride content was calculated from the ASL ^36Cl collected divided by the ratio of ^36Cl per mole of Cl^− in the basolateral medium ASL Cl^− concentration was calculated from the Cl^− content divided by the volume of ASL. […]

CF epithelia [3] = assay: Bacteria deposited into liquid covering CF epithelia; assay type: cell-based, human; settings: bacteria grew on untreated or saline-treated epithelia

OC[C@@H](O)[C@H](O)[C@@H](O)CO [xylitol]
toxicity observed after intravenous delivery ([1]; 5-50% solution in water at 1-4.5 g/Kg intravenously, changes reversible): increases in serum uric acid and elevated liver enzymes | adverse effect in children ([1]; delivered in large amounts): osmotic diarrhea | killing of E. coli by nasal lavage fluid (E. coli): not affected | estimated ASL volume (CF epithelia [2]; 24 hours after 5 μl apical): increased | ASL Cl- concentration (CF epithelia [2]; 24 hours after 5 μl isosmotic xylitol solution apical): fell to values observed in non-CF epithelia | fate of bacteria deposited into xylitol-containing liquid covering CF epithelia (CF epithelia [3]): the bacteria were killed
